Values after ≈ are worked out from the molar mass of the structure shown. Read-outs that look alike come from different tables or passages of the source.
Tests used:
[1] = target: Isoleucyl-tRNA synthetase (IleRS) (Escherichia coli (strain K12), UniProt P00956); assay: Isoleucyl-tRNA synthetase enzyme inhibition (AMP-Glo; single point % inhibition at 100 μM and IC50); assay type: biochemical; conditions: E. coli IleRS; read-out: Enzyme Inhibition - IC50, E. coli IleRS
From the text: Study 1—Enzyme Inhibition
The aminoacylation reaction catalyzed by aminoacyl-tRNA synthetases (aaRS) takes place in two steps. In the first step, aaRS activates its cognate amino acid with ATP; and in the second step the activated amino acid is loaded to its corresponding tRNA. This reaction can be summarized as follows: aaRS+aa+ATP=aaRS-aa-AMP+PPi aaRS-aa-AMP+tRNA=aa-tRNA+AMP+aaRS […]
wherein: aaRS, aminoacyl-tRNA synthetase; aa, amino acid; aaRS-aa-AMP, enzyme-bound to aminoacyl-adenylate; AMP, adenosine monophosphate; aa-tRNA, aminoacyl-tRNA, PPi, inorganic pyrophosphate.
Isoleucyl-tRNA Synthetase a. Single Point Percentage Inhibition
The activity of the pathogenic aaRSs was monitored by measuring AMP production using the commercial kit AMP-Glo (Promega, Madison, USA).
Ligand stock solutions were prepared in 100% DMSO at 10 mM concentration. An assay buffer consisting of 100 mM Tris HCl pH 7.6, 40 mM MgCl, 20 mM KCl and 150 mM NaCl was prepared in dH2O. An enzyme solution containing 51.77 μM IleRS was prepared in assay buffer to provide 30 nM final assay concentration and 75 nM reservoir concentration for a 1:2.5 dilution in the assay. A substrate solution was also prepared in assay buffer with 50 mM L-isoleucine, 10 mM ATP and 100 mg/mL tRNA. A final assay concentration of 500 μM L-isoleucine, 5 μM ATP and 1 mg/mL tRNA and reservoir concentration of 833.33 μM L-isoleucine, 8.33 μM ATP and 1.67 mg/mL tRNA was used for a 1:1.66 dilution in assay.
Enzyme percentage inhibition values were recorded in triplicate at a single point concentration of 100 μM.
Using the same enzymatic assay in a 384-well plate format, ten point concentration response curves were generated for each compound using a top concentration of 100 μM. The known inhibitor, IleAMS was used as a positive control for the IleRS assay. 100% DMSO was used as a negative control. The IC50 was calculated based on non-linear regression analysis.

[2] = tested on: bacteria (ATCC reference strains); assay: Antibacterial activity, MIC by broth micro-dilution (CLSI)
[3] = target: Leucyl-tRNA synthetase (LeuRS) (Escherichia coli (strain K12), UniProt P07813); assay: Leucyl-tRNA synthetase enzyme inhibition (AMP-Glo; single point % inhibition at 100 μM and IC50); assay type: biochemical
[4] = Human cell viability / cytotoxicity (CellTiter-Glo, 24 hours); assay type: cell-based; conditions: human, HepG2 cells (ATCC HB-8065); HepG2 ATCC HB-8065, 24 hours; read-out: Cytotoxicity in HepG2 ATCC HB-8065 Cell Line, IC50
Experimental: Study 3—Human Cell Viability
Compounds were assessed for potential non-specific cytotoxic effects against a human hepatic cell line (HepG2 ATCC HB-8065). 96-well plates were seeded with HepG2 cells in concentration of 15,000 cells per well in 100 μL of MEM growth media completed with 1% NEAA and 1% sodium pyruvate. Border wells were filled with 100 μL of sterile PBS. Two days upon cells incubation, the compounds were added. Compound dilutions were prepared in 96-well V-bottom plate in pure DMSO. Growth media from 5 plates were aspirated and replaced with 98.7 μL of fresh growth media. 1.28 μL of compounds prepared in V-bottom plates were transferred with multichannel pipette into test plates (78.1× dilution). Final DMSO concentration was 1.28% per well. In control wells, 1.28 μL of DMSO was added in 98.7 μL of media. Compounds were tested in duplicates. Cells were incubated with compounds for 24 hours when cell viability was assessed by measuring ATP levels. ATP levels were measured by adding 50 μL of CellTiter-Glo reagent to each well and after 5 minutes of incubation luminescence was measured with SpectraMax i3. The potential effect of tested compounds on cell viability was determined by comparing the signal obtained in presence of different concentrations of the compounds with those obtained in the presence of DMSO only. The potential effects were then calculated and presented as IC50 values (μg/mL).

[5] = Escherichia coli, ATCC25922, read-out: Antibacterial Activity (MIC), A = E. coli ATCC 25922
[6] = E. coli LeuRS, read-out: Enzyme Inhibition - IC50, E. coli LeuRS
[7] = Acinetobacter baumannii, read-out: Antibacterial Activity (MIC), E = A. baumannii B1931
[8] = Escherichia coli, BAA2469, read-out: Antibacterial Activity (MIC), G = E. coli BAA-2469
[9] = Haemophilus influenzae, ATCC49247, read-out: Antibacterial Activity (MIC), F = H. influenzae ATCC 49247
[10] = Klebsiella pneumoniae, ATCC700603, read-out: Antibacterial Activity (MIC), C = K. pneumoniae ATCC 700603
[11] = Pseudomonas aeruginosa, ATCC27853, read-out: Antibacterial Activity (MIC), D = P. aeruginosa ATCC 27853

Leucyl-tRNA synthetase (LeuRS), sequence (P07813 whole entry, looked up): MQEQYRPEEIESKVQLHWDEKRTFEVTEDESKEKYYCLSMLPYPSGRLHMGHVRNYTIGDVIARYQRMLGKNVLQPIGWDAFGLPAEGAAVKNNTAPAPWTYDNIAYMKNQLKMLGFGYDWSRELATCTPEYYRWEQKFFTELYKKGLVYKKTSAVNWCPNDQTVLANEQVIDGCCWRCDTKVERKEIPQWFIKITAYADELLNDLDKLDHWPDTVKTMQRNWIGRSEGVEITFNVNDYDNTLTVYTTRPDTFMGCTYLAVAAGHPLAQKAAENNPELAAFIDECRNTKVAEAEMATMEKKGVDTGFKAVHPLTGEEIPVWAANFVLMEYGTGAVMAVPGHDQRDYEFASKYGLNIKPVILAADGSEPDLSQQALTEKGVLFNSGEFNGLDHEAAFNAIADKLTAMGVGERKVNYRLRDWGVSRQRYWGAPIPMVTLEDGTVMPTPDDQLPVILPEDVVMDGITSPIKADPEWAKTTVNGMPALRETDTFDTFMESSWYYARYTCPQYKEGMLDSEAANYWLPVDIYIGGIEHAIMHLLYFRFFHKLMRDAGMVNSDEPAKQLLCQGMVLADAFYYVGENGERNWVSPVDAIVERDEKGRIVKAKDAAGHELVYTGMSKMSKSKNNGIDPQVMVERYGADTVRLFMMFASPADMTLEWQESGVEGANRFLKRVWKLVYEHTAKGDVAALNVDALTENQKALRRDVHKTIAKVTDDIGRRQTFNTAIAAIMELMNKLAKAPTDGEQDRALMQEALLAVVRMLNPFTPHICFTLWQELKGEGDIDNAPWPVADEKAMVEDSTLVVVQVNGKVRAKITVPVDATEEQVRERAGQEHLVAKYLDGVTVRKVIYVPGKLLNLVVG
Isoleucyl-tRNA synthetase (IleRS), sequence (P00956 whole entry, looked up): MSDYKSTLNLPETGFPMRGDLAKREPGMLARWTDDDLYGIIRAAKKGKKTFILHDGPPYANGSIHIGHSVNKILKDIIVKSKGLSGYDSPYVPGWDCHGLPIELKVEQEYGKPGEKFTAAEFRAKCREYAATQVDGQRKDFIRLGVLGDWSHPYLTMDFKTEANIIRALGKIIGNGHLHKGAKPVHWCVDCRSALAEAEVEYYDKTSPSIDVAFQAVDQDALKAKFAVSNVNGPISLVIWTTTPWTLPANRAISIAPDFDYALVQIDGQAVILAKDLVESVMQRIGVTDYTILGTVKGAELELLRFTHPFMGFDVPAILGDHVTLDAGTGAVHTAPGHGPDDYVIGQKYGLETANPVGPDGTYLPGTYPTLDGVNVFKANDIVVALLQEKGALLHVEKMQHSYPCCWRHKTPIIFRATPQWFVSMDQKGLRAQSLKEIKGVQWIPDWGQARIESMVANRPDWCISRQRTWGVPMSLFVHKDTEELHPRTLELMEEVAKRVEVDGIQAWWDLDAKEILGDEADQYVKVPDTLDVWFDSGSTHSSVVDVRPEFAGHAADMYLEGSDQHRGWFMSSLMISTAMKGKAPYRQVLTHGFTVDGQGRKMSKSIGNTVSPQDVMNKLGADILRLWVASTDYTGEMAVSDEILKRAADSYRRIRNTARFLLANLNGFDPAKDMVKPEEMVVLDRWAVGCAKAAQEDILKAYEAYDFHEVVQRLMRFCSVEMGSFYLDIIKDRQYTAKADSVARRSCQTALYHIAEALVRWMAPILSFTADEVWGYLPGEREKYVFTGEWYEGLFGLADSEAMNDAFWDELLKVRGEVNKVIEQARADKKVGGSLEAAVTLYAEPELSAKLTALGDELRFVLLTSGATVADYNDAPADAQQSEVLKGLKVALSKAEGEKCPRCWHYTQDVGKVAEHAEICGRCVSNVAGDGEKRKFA

Work on `CC[C@H](C)[C@H](N)C(=O)N=[S@](N)(=O)c1cccc(C(C)(C)C)c1` [ANASIA-056-1] yielded an IC50 [1] of 84 µM.
`CC[C@H](C)[C@H](N)C(=O)N=[S@](N)(=O)c1csc2ccccc12` [ANASIA-057-1] gave an IC50 [1] of 27.5 µM.
For `CC[C@H](C)[C@H](N)C(=O)N=S(N)(=O)c1nc(Cl)cs1` (stereo partly shown) [ANASIA-058], the IC50 [1] was 58.6 µM.
`CC[C@H](C)[C@H](N)C(=O)N=[S@@](N)(=O)c1cccc(OC(F)F)c1` [ANASIA-069-2] gave an IC50 [1] of 13.7 µM.
For `CC[C@H](C)[C@H](N)C(=O)N=[S@](N)(=O)c1cccc(C(F)(F)F)c1` [ANASIA-072-1], the IC50 [1] was 53.1 µM.
With `CC[C@H](C)[C@H](N)C(=O)N=[S@](N)(=O)c1cccc(OC(F)(F)F)c1` [ANASIA-077-1] the IC50 [1] was 40.8 µM.
For `CC[C@H](C)[C@H](N)C(=O)N=[S@](N)(=O)c1ccsc1Cl` [ANASIA-078-1], the IC50 [1] was 16.4 µM.
In the case of `CC[C@H](C)[C@H](N)C(=O)N=[S@@](N)(=O)c1ccsc1Cl` [ANASIA-078-2], the IC50 [1] is reported as 0.599 µM.
`CC[C@H](C)[C@H](N)C(=O)N=[S@](N)(=O)c1cscc1C` [ANASIA-079-1] gave an IC50 [1] of 19.8 µM.
Compound `CC[C@H](C)[C@H](N)C(=O)N=[S@@](N)(=O)c1cscc1C.Cl` [ANASIA-079-2] has an IC50 [1] of 0.372 µM and an MIC [2, 5] of 64 µg/mL.
In the case of `CC[C@H](C)[C@H](N)C(=O)N=[S@](N)(=O)c1csc(Cl)c1` [ANASIA-080-1], the IC50 [1] is reported as 1.14 µM.
`CC[C@H](C)[C@H](N)C(=O)N=[S@@](N)(=O)c1csc(Cl)c1` [ANASIA-080-2] gave an IC50 [1] of 41.3 µM.
`CC[C@H](C)[C@H](N)C(=O)N=S(N)(=O)c1csc2ccsc12` (stereo partly shown) [ANASIA-084] showed an IC50 [1] of 2.82 µM.
In the case of `CC(C)C[C@H](N)C(=O)N=S(N)(=O)c1csc2ccsc12` (stereo partly shown) [ANASIA-100], the IC50 [3, 6] is reported as 0.0328 µM, the MIC [2, 7] is reported as 32 µg/mL (≈ 96.5 µM) and the MIC [2, 5] is reported as 0.5 µg/mL (≈ 1.51 µM). It also gave an MIC [2, 8] of 4 µg/mL (≈ 12.1 µM), an MIC [2, 9] of 0.5 µg/mL (≈ 1.51 µM) and an MIC [2, 10] of 64 µg/mL (≈ 193 µM). It also gave an MIC [2, 11] greater than 64 µg/mL and an IC50 at 24 h [4] greater than 64 µg/mL.
`COc1ccsc1[S@@](N)(=O)=NC(=O)[C@@H](N)CC(C)C.Cl` [ANASIA-108-1] gave an IC50 [3] of 0.127 µM, an MIC [2, 7] greater than 64 µg/mL and an MIC [2, 5] of 8 µg/mL. For the same compound, the MIC [2, 8] was 16 µg/mL, the MIC [2, 9] was 32 µg/mL and the MIC [2, 10] was 64 µg/mL. It also gave an MIC [2, 11] of 64 µg/mL and an IC50 at 24 h [4] greater than 64 µg/mL.
With `CC[C@H](C)[C@H](N)C(=O)N=[S@](N)(=O)c1ccc2c(c1)OCO2` [ANASIA-115-1] the IC50 [1] was 4.7 µM.
For `CC[C@H](C)[C@H](N)C(=O)N=[S@](N)(=O)c1scc(Br)c1Br` [ANASIA-116-1], the IC50 [1] was 3.83 µM.
`CC[C@H](C)[C@H](N)C(=O)N=[S@@](N)(=O)c1scc(Br)c1Br` [ANASIA-116-2] gave an IC50 [1] of 0.95 µM.
In the case of `CC1CCC(N)(C(=O)N=S(N)(=O)c2ccccc2)C1` (stereo not shown) [ANASIA-123], the IC50 [1] is reported as greater than 100 µM and the IC50 [3, 6] is reported as 4.87 µM.
Work on `CC[C@H](C)[C@H](N)C(=O)N=S(N)(=O)c1cc2sccc2s1` (stereo partly shown) [ANASIA-138] yielded an IC50 [1] of 0.383 µM, an MIC [2, 7] greater than 64 µg/mL and an MIC ([2]; Enterobacter cloacae, read-out: Antibacterial Activity (MIC), B = Enterobacter cloacae B1966) greater than 64 µg/mL. It also gave an MIC [2, 5] greater than 64 µg/mL, an MIC [2, 9] of 16 µg/mL (≈ 48.3 µM) and an MIC [2, 10] greater than 64 µg/mL. For the same compound, the MIC [2, 11] was greater than 64 µg/mL and the IC50 at 24 h [4] was greater than 64 µg/mL.
